From paper PMC8637440, “Structural Modifications Yield Novel Insights Into the Intriguing Pharmacodynamic Potential of Anti-inflammatory Nitro-Fatty Acids” (Frontiers in Pharmacology, 2021)
Entries after “also recorded” stand apart in the source; their conditions may differ.

Tested on: PMNL
Test: WST-1 viability assay in PMNL
Assay type: cell-based, human
Details: 20 µM, 2 h (data not shown)
Experimental: Cell viability was analyzed with the WST-1 assay based on the cleavage of the stable tetrazolium salt WST-1 by the mitochondrial reductase system. Cells were seeded in the appropriate densities in a clear 96-well plate and settled overnight at 37°C in 5% CO2. […] Cell viability was analyzed by adding 10 µl WST-1 solution (Roche, Basel, Switzerland) and subsequently incubating the cells at 37°C for another 30–40 min. Absorbance was measured at 450 nm with a control wavelength at 620 nm using a plate reader.
5-LO, the key enzyme in leukotriene biosynthesis, catalyzes the first steps in leukotriene formation from AA. Oxidation of AA by 5-LO leads to the formation of 5-hydroperoxyeicosatetraenoic acid (5-HPETE), which can further be converted to LTA4 or reduced to 5-HETE. In the next step, LTA4 is hydrolyzed by LTA4 hydrolase to produce LTB4. Moreover, 12- and 15-LO catalyze the formation of 12- and 15-H(P)ETE [12- and 15-hydro(per)oxyeicosatetraenoic acid]. Nitroalkylation of 5-LO cysteines 416 and 418 by NFA leads to enzyme inhibition and beneficial anti-inflammatory effects, whereas no impact has been observed on 12- and 15-LO so far ([Awwad et al., 2014]). 5-LO product formation of purified PMNL was triggered by incubation with 2.5 µM of the calcium ionophore A23187 in the presence of 20 µM AA. […] Shifting the nitro group from position 9 to 10, or rather, towards position 11 (18.11.11), led to a decreased impact on 15-LO product formation (Table 3). […] Therefore, 5-LO product formation of purified PMNL after treatment with A23187 was determined in absence of AA which should strongly increase the 5-LO-inhibitory potency of competitive inhibitors. However, IC50 values were similar under these conditions strengthening the hypothesis of NFA as presumably non-competitive 5-LO inhibitors. Using a WST-1 viability assay we assessed possible cytotoxic effects of the strongest 5-LO-inhibitory NFA derivatives in PMNL including 18.4.4, 18.5.5, 18.6.6, 18.7.7, 18.8.8, 18.8.9, 18.9.9, 18.9.10, 18.10.10, 20.9.9, and 22.9.9.

Question: CCCCCCCCCCCCCC=C(CCC(=O)O)[N+](=O)[O-] [18.4.4, 4-nitro-octadec-4-enoic acid] was tested. Which “cytotoxic effects in PMNL (WST-1 viability)” value (“cytotoxic effects in PMNL” for short) did it give?
Answer: Its value is “failed to induce significant cytotoxic effects”.

Question: CCCCCCCCCCCCC=C(CCCC(=O)O)[N+](=O)[O-] [18.5.5, 5-nitro-octadec-5-enoic acid] was tested. Which “cytotoxic effects in PMNL” value did it give?
Answer: Its value is “failed to induce significant cytotoxic effects”.

Question: CCCCCCCCCCCC=C(CCCCC(=O)O)[N+](=O)[O-] [18.6.6, 6-nitro-octadec-6-enoic acid] was tested. Which “cytotoxic effects in PMNL” value did it give?
Answer: The value was “failed to induce significant cytotoxic effects”.

Question: Which “cytotoxic effects in PMNL” value does the source give for CCCCCCCCCCC=C(CCCCCC(=O)O)[N+](=O)[O-] [18.7.7, 7-nitro-octadec-7-enoic acid] here?
Answer: Its value is “failed to induce significant cytotoxic effects”.

Question: How did the “cytotoxic effects in PMNL” value turn out when CCCCCCCCCC=C(CCCCCCC(=O)O)[N+](=O)[O-] [18.8.8, 8-nitro-octadec-8-enoic acid] was run?
Answer: The value was “failed to induce significant cytotoxic effects”.

Question: CCCCCCCCCC(=CCCCCCCC(=O)O)[N+](=O)[O-] [18.8.9, 9-nitro-octadec-8-enoic acid] was tested. Which “cytotoxic effects in PMNL” value did it give?
Answer: Its value is “failed to induce significant cytotoxic effects”.

Question: With CCCCCCCCC=C(CCCCCCCC(=O)O)[N+](=O)[O-] [18.9.9, 9-nitro-octadec-9-enoic acid] as the molecule, how does the “cytotoxic effects in PMNL” value read?
Answer: The value was “failed to induce significant cytotoxic effects”.

Question: With CCCCCCCCC(=CCCCCCCCC(=O)O)[N+](=O)[O-] [18.9.10, 10-nitro-octadec-9-enoic acid] as the molecule, how does the “cytotoxic effects in PMNL” value read?
Answer: The value was “failed to induce significant cytotoxic effects”.

Question: With CCCCCCCC=C(CCCCCCCCC(=O)O)[N+](=O)[O-] [18.10.10, 10-nitro-octadec-10-enoic acid] as the molecule, how does the “cytotoxic effects in PMNL” value read?
Answer: The value was “failed to induce significant cytotoxic effects”.

Question: With CCCCCCCCCCC=C(CCCCCCCC(=O)O)[N+](=O)[O-] [20.9.9, 9-nitro-eicos-9-enoic acid] as the molecule, how does the “cytotoxic effects in PMNL” value read?
Answer: The value was “failed to induce significant cytotoxic effects”.

Molecular target: T1, COX-2 (Homo sapiens, UniProt P35354)
T1 sequence (P35354 18-604): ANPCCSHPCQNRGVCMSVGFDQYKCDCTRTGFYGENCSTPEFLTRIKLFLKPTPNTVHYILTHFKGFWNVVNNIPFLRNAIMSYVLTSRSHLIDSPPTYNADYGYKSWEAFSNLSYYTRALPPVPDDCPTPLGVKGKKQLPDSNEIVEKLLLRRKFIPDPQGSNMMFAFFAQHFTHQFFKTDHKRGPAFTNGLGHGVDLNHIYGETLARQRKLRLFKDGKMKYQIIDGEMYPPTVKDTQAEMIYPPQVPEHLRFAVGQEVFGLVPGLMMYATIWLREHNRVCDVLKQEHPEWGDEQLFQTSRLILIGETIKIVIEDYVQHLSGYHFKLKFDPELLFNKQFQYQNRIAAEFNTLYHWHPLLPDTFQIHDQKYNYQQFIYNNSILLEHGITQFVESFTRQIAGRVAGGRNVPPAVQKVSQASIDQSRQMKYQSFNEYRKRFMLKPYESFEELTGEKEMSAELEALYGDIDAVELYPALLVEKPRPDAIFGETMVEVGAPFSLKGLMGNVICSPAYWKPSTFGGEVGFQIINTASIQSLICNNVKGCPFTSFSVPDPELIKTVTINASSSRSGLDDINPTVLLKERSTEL
Test: Cell-based COX-2 activity assay in IL-1β-stimulated A549 cells
Parameters: endogenous in cells; host or cells: A549 stimulated with 1 ng/ml IL-1β
Details: 10 µM, 24 h, 1 ng/ml IL-1β
Experimental: The COX-2 inhibitory effects of NFA were investigated using a cell-based COX-2 activity assay performed using a Cyclooxygenase (COX) Activity Assay Kit (Fluorometric) from Abcam (Cambridge, UK; #ab204699). A549 cells (3 × 10^6) were seeded in 10-cm dishes and allowed to become adherent for 3 h. […] Then, cells were detached with a cell scraper and washed twice with 1× PBS before being resuspended in 100 µl lysis buffer (1× PBS containing 1% NP-40). The cells were incubated for 30 min with shaking on ice. After 3-min centrifugation at 12,000 ×g at 4°C, 20 µl supernatant was used for the COX activity assay. The assay was performed according to the manufacturer’s instructions in a white 96-well microplate with a clear bottom in duplicate. […] COX-2 activity was normalized to protein concentration.
Suppl. Figure 5: Effects of NFA on cellular COX-2 activity. COX-2 Activity of A549 cells […]
h. Cells were lysed, and COX-2 activity was measured using Cyclooxygenase (COX) Activity Assay Kit (Fluorometric) from Abcam. (A) NFA derivatives with different chain length. (B) NFA derivatives with different Michael acceptor position. Samples were normalized to protein concentration. Data are presented as mean + SD of n=4. COX, cyclooxygenase; DMSO, dimethyl sulfoxide NFA, nitro fatty acids .
(1 picture or pasted object on this page, not shown here)

Question: Which “effect on COX-2 activity in IL-1β-stimulated A549 cells” value (“effect on COX-2 activity” for short) does the source give for CCC=C(CCCCCCCC(=O)O)[N+](=O)[O-] [12.9.9, 9-nitro-dodec-9-enoic acid] here?
Answer: The value was “failed increasing COX-2 product formation”.

Question: With CCCCC=C(CCCCCCCC(=O)O)[N+](=O)[O-] [14.9.9, 9-nitro-tetradec-9-enoic acid] as the molecule, how does the “effect on COX-2 activity” value read?
Answer: The value was “failed increasing COX-2 product formation”.

Question: How did the “effect on COX-2 activity” value turn out when CCCCCCC=C(CCCCCCCC(=O)O)[N+](=O)[O-] [16.9.9, 9-nitro-hexadec-9-enoic acid] was run?
Answer: Its value is “failed increasing COX-2 product formation”.

Question: How did the “effect on COX-2 activity” value turn out when CCCCCCCCCCCC=C(CCCCC(=O)O)[N+](=O)[O-] [18.6.6, 6-nitro-octadec-6-enoic acid] was run?
Answer: Its value is “induced COX-2 activity”.

Question: Which “effect on COX-2 activity” value does the source give for CCCCCCCCCC=C(CCCCCCC(=O)O)[N+](=O)[O-] [18.8.8, 8-nitro-octadec-8-enoic acid] here?
Answer: The value was “induced COX-2 activity”.

Question: CCCCCCCCC=C(CCCCCCCC(=O)O)[N+](=O)[O-] [18.9.9, 9-nitro-octadec-9-enoic acid] was tested. Which “effect on COX-2 activity” value did it give?
Answer: The value was “no COX-2 inhibition”.

Question: For CCCCCCCC=C(CCCCCCCCC(=O)O)[N+](=O)[O-] [18.10.10, 10-nitro-octadec-10-enoic acid], which “effect on COX-2 activity” value is on record?
Answer: Its value is “slight COX-2 inhibition”.

Question: For CCCCCCCCCCC=C(CCCCCCCC(=O)O)[N+](=O)[O-] [20.9.9, 9-nitro-eicos-9-enoic acid], which “effect on COX-2 activity” value is on record?
Answer: The value was “no COX-2 inhibition; also recorded: increased COX-2 product formation”.
